The source of these data is EPA's ToxValDB 9.5 (doi:10.2903/j.efsa.2018.5151).

For one data set, the system named is Aphidius rhopalosiphi. Description: LR50; higher = less toxic.
Another data set concerns Bibionidae. Particulars: chronic/long-term; duration: 28 days.
The test system of a further data set is Rattus norvegicus. Particulars: acute; oral; mortality.
The next data set relates to Apis mellifera. Particulars: acute, mortality.
The subject of another data set is Folsomia candida. To be noted: chronic/long-term; duration: 28 days; reproduction.
A further data set relates to Colinus virginianus. Particulars: reproduction developmental.
In the next data set the test system is Anas platyrhynchos. To be noted: acute; oral; unspecified; mortality.
Another data set relates to Daphnia magna. To be noted: chronic/long-term; duration: 21 days.

≈ marks a conversion by molar mass, not a printed value. Where only a bound is given, the exact number is not on record here.

In general, LC50 refers to the concentration that kills 50% of the test population. Broadly, the NOAEL is the highest dose or exposure tested at which no adverse effect was seen. On to `COC(=O)Nc1cccc(OC(=O)Nc2cccc(C)c2)c1` [Phenmedipham], for which the LR50 in the data set on Aphidius rhopalosiphi (acute, mortality) is over 294 g/ha; with Aphidius rhopalosiphi (chronic/long-term, duration: 14 days, no effects), over 960 g/ha. In addition, the NOEC was at least 6.86 mg/L with Bibionidae; 0.041 mg/L with Oncorhynchus mykiss (chronic/long-term, duration: 92 days, growth); 500 mg/kg in the data set on Folsomia candida; 0.005 mg/L with Daphnia magna. The LD50 with Rattus norvegicus was over 5000 mg/kg-day; in the data set on Apis mellifera (dermal) it was over 100 µg/piece; in the data set with Apis mellifera (oral, unspecified), over 105 µg/piece; in the data set on Anas platyrhynchos, over 2500 mg/kg-day. Also, the LC50 with Oncorhynchus mykiss (acute, duration: 96 hours, mortality) was determined as 1.84 µg/mL (≈ 6.13 µM). Besides, in the data set on Colinus virginianus, the NOAEL stood at 121 mg/kg-day.
